Paper PMC7095208 (Nature, 2014)
Like-named read-outs stand apart in the source and are kept apart here.

Legend:
[1] = target: HCV NS5B RNA polymerase (Hepatitis C virus genotype 1b, UniProt P26663); type: biochemical
[2] = rat, in vivo, im
[3] = test system: filoviruses; details: cited from earlier work
[4] = test system: filoviruses; details: in vivo; cited from earlier work
[5] = in vitro; details: dog, pH 1
[6] = test system: human lymphocytes; details: 787 µM
[7] = in vitro; details: human
[8] = test system: RVFV ZH5018; assay: microbe, parasite or virus in culture; type: cell-based; details: Rift Valley fever virus, HeLa
[9] = test system: MARV Ci67; assay: organism not typed; type: cell-based, Marburg virus; details: HeLa
[10] = in vivo; details: cynomolgus monkey, im
[11] = test system: Marburg virus - Musoke; type: cell-based
[12] = test system: HeLa cells; details: human
[13] = in vivo; details: Sprague-Dawley, rat
[14] = test system: MARV-Angola; details: guinea pig, in vivo
[15] = test system: EBOV minigenome RNA replicon; type: cell-based, Ebola virus
[16] = test system: human RNA or DNA
[17] = test system: MARV Musoke; assay: organism not typed; type: cell-based, Marburg virus; details: HeLa
[18] = in vivo; details: mouse, iv
[19] = in vitro; details: human, s9, half-life (t1/2)
[20] = test system: EBOV Kikwit; assay: microbe, parasite or virus in culture; type: cell-based, Ebola virus; details: Zaire ebolavirus, HeLa
[21] = test system: Rift Valley fever virus (ZH501); details: mouse, in vivo
[22] = test system: SUDV Boniface; assay: microbe, parasite or virus in culture; type: cell-based; details: Sudan ebolavirus, HeLa
[23] = test system: MARV Angola; assay: organism not typed; type: cell-based, Marburg virus; details: HeLa
[24] = test system: JUNV Romero; assay: organism not typed; type: cell-based, Junín virus; details: HeLa
[25] = test system: MARV-Musoke; details: guinea pig, in vivo
[26] = test system: MARV (Musoke variant)
[27] = target: hERG ion channel (Homo sapiens, UniProt Q12809); assay: hERG ion channel current; type: biochemical; details: 30 µM; data not shown
Chain of hERG ion channel (Q12809 whole entry): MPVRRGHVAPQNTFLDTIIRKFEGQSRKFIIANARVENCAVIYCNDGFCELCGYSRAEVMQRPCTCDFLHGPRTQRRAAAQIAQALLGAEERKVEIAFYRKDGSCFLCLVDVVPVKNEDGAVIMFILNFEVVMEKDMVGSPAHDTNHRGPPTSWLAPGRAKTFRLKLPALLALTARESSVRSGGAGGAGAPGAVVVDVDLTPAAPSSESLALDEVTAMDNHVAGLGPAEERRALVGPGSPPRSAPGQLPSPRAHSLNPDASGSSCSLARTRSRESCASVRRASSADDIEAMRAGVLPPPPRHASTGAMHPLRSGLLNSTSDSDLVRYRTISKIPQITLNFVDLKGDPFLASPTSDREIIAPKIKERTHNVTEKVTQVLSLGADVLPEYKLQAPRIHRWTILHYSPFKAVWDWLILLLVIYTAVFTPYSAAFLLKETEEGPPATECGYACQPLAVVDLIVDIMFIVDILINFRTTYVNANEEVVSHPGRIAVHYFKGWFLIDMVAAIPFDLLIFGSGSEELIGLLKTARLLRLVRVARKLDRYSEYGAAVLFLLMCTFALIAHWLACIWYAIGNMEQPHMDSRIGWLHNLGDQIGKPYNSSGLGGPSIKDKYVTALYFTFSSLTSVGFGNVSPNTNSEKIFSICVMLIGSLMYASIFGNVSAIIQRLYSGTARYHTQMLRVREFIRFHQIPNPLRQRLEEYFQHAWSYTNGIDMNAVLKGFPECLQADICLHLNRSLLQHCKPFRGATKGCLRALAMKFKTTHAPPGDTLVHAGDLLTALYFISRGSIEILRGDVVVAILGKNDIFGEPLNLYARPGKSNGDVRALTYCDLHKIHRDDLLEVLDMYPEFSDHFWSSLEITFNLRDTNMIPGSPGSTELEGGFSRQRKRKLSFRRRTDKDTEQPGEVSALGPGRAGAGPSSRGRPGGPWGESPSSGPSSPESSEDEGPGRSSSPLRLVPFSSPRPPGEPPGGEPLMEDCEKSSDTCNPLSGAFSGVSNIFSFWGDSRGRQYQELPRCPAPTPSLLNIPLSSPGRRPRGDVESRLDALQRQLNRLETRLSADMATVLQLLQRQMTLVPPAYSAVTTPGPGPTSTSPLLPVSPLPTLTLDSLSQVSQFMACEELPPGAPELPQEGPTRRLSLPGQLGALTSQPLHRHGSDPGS

Chain of HCV NS5B RNA polymerase (P26663 2420-2989 limits assumed): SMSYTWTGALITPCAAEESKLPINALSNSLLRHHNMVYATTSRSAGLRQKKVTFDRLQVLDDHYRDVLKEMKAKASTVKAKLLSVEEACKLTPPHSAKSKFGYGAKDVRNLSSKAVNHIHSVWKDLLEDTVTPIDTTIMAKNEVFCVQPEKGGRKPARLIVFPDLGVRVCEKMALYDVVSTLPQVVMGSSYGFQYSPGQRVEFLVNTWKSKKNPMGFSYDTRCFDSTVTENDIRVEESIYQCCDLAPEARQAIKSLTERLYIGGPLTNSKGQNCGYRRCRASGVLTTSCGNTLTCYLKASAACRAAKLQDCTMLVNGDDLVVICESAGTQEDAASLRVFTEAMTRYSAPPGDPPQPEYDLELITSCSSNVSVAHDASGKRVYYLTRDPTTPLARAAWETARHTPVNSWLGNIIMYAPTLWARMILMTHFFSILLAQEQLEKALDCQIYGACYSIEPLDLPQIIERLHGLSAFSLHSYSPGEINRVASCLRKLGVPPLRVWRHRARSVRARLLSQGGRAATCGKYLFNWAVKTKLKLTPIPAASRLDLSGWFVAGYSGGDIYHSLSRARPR

In the case of `Nc1ncnc2c([C@@H]3N[C@H](COP(=O)(O)OP(=O)(O)OP(=O)(O)O)[C@@H](O)[C@H]3O)c[nH]c12` [BCX4430-TP], the “RNA chain synthesis by HCV RNA polymerase” value [1] is reported as “induces premature termination” and the “half-life in the liver” value [2] is reported as 372 min.
In the case of `NC(=O)c1ncn([C@@H]2O[C@H](CO)[C@@H](O)[C@H]2O)n1` [ribavirin], the activity against filoviruses [3] is given as “not active”.
In the case of `NC(=O)c1nc(F)c[nH]c1=O` [T-705, favipiravir], the “protection against filoviruses in rodents” value [4] is given as “high-degree of protection”.
For `Nc1ncnc2c([C@@H]3N[C@H](CO)[C@@H](O)[C@H]3O)c[nH]c12` [BCX4430, (2S,3S,4R,5R)-2-(4-amino-5H-pyrrolo[3,2-d]pyrimidin-7-yl)-5-(hydroxymethyl)pyrrolidine-3,4-diol], the CC50 [5] was greater than 296 µM, the chromosomal aberrations [6] was “no detectable chromosomal aberrations” and the CC50 [7] was greater than 296 µM. The EC50 [8] was 41.6 µM, the EC90 [8] was 98 µM and the EC50 [9] was 6.7 µM. The EC90 [9] was 16.1 µM, the half-life [10] was less than 5 min and the “production of infectious MARV virus” value [11] was “no detectable infectious MARV virus”. The CC50 [12] was 242 µM, the half-life [13] was less than 5 min and the post-exposure protection [14] was “significant post-exposure protection”. The protection [14] was “protected”, the “GFP expression in EBOV minigenome replicon assay” value [15] was “reduces expression of green fluorescent protein” and the “incorporation of BCX4430-MP into human RNA or DNA” value [16] was “no evidence of BCX4430-MP incorporation”. For the same molecule, the EC50 [17] was 4.4 µM, the EC90 [17] was 10.5 µM and the half-life [18] was less than 5 min. The half-life [19] was greater than 54 min, the EC50 [20] was 11.8 µM and the EC90 [20] was 25.4 µM. For the same molecule, the “protection against lethal Rift Valley fever virus challenge” value [21] was “protected”, the EC50 [22] was 3.4 µM and the EC90 [22] was 10.3 µM. For the same molecule, the EC50 [23] was 5 µM, the EC90 [23] was 12.3 µM and the EC50 [24] was 42.2 µM. For the same molecule, the EC90 [24] was greater than 100 µM, the post-exposure protection [25] was “significant post-exposure protection” and the animals surviving ([26]; cynomolgus monkey, in vivo) was 83%. The “haemorrhagic disease manifestations (PT, aPTT, serum AST, bilirubin) vs vehicle” value ([26]; cynomolgus monkey, in vivo) was “ameliorated”, the “serum MARV burden” value ([26]; cynomolgus monkey, in vivo) was “significantly and substantially reduced” and the tolerability ([26]; cynomolgus monkey, in vivo) was “well tolerated”. The animals surviving ([26]; n = 6) was “All animals” and the “inhibition of hERG ion channel current” value [27] was “did not inhibit”.
In the case of `Nc1nccc2c1ncn2C1C=C(CO)C(O)C1O` (stereo not shown) [c^3-Npc A, 3-deazaneplanocin A], the “protection against filoviruses in rodents” value [4] is listed as “high-degree of protection”.
